How the values were obtained:
[1] = Oral bioavailability in rat; assay type: ADME, organism-based; settings: in vivo
[2] = Oral bioavailability in mouse; assay type: ADME, organism-based; settings: in vivo
SJSA-1 = experiment: Antitumor activity against human SJSA1 cells xenografted in mouse assessed as tumor regression at 200 mg/kg, qd; assay type: functional

CC[C@@H]([C@H](C)O)N1C(=O)[C@@](C)(CC(=O)O)C[C@H](c2cccc(Cl)c2)[C@H]1c1ccc(Cl)cc1
bioavailability [1]: 100%
bioavailability [2]: 12%
Activity (SJSA-1): 27%
